The numbers were not newly measured in US10093983B2 (priority 2011, dated 2018), which cites them from elsewhere.

This data set has as its target T1, D351Y or D351E mutant ESR1 (Homo sapiens, UniProt P03372, D351Y).
T1 sequence (P03372 1-595 D351Y): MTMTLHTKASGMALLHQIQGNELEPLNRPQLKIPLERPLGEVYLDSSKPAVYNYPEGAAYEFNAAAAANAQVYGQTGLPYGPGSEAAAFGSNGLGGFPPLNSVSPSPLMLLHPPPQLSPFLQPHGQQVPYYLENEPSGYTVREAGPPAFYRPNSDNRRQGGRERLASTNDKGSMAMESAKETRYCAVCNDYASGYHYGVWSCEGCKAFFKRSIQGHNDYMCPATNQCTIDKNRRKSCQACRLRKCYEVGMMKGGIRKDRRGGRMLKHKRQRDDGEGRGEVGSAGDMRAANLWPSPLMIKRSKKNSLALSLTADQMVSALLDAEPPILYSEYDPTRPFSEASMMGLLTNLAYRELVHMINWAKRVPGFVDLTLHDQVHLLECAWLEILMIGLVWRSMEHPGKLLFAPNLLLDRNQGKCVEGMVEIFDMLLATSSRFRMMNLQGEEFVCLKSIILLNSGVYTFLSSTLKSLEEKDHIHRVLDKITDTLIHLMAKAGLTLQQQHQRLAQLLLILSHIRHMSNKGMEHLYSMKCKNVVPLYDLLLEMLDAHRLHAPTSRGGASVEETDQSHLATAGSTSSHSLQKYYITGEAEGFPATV

`C[C@]12CC[C@@H]3c4ccc(O)cc4C[C@@H](CCCCCCCCC[S+]([O-])CCCC(F)(F)C(F)(F)F)[C@H]3[C@@H]1CC[C@@H]2O` (stereo partly shown) [fulvestrant]: the “effects of the antiestrogen upon mutating D351 to tyrosine” value is “unaffected”.
